Experimental data from paper PMC11311998, “AR71, Histamine H3 Receptor Ligand—In Vitro and In Vivo Evaluation (Anti-Inflammatory Activity, Metabolic Stability, Toxicity, and Analgesic Action)” (International Journal of Molecular Sciences, 2024).

Biological target: T1, hH3R (Homo sapiens, UniProt Q9Y5N1)
T1 construct: expressed in transfected cells; host or cells: HEK 293 cells stably expressing hH3R, provided by Dr Thierry Calmels, Bioprojet-Biotech (France)
Experiment: cAMP accumulation assay in HEK 293 cells stably expressing the hH3R
Format: cell-based
Method: The intrinsic activity of AR71 was evaluated in a 3′,5′-cyclic adenosine monophosphate (cAMP) accumulation assay in human embryonic kidney (HEK) 293 cells, stably expressing the hH3R [42].
The intrinsic activity of AR71 was evaluated in a 3′,5′-cyclic adenosine monophosphate (cAMP) accumulation assay in human embryonic kidney (HEK) 293 cells, stably expressing the hH3R [42], using the LANCE Ultra cAMP kit (Perkin Elmer, Waltham, MA, USA). The applied method was intended to measure the levels of cAMP generated because of changes in adenylyl cyclase activity mediated by GPCRs. The assay is based on the competition between the europium (Eu) chelate-labelled cAMP tracer and sample cAMP for binding sites on cAMP-specific monoclonal antibodies labelled with the ULight dye. The effect of AR71 (concentrations: 10^−10–10^−5 M) on reversing the inhibition of cAMP production by (R)-(-)-α-methyl histamine (30 nM) in forskolin-stimulated (10 μM) cells was evaluated. The experiment was conducted according to the principles described earlier. Experiments were performed three times in triplicates, and IC50 values were determined using GraphPad Prism 8.4.3 software.
Figure S1. Forskolin-stimulated cAMP accumulation studies in HEK 293 cells expressing the human histamine H3
receptor, co-treated with (R)(-)-α-Methylhistamine […] and AR71 (30 nM). […]

T1 sequence (Q9Y5N1 whole entry): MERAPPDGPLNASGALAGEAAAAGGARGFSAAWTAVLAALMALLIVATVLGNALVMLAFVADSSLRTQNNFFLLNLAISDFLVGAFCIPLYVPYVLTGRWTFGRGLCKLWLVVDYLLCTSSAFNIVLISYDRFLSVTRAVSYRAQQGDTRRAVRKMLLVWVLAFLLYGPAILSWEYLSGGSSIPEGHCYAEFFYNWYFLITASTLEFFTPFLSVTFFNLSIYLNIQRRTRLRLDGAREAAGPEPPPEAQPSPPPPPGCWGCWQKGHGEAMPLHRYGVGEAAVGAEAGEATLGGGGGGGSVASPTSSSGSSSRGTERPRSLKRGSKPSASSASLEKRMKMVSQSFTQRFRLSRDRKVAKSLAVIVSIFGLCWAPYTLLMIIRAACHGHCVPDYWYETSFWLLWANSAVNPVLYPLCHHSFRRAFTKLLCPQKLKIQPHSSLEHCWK

COc1cc(/C=C/C(=O)c2ccc(OCCCN3CCCCC3)cc2)cc(OC)c1OC [AR71, (E)-3-(3,4,5-trimethoxyphenyl)-1-(4-(3-(piperidin-1-yl)propoxy)phenyl)prop-2-en-1-one]
intrinsic activity profile at H3R (counteracts inhibition of cAMP production by (R)-(-)-α-methyl histamine in forskolin-stimulated cells): H3R antagonist/inverse agonist
IC50 (reversal of inhibition of cAMP production by (R)-(-)-α-methyl histamine (30 nM) in forskolin-stimulated (10 μM) cells): 83.5 ± 11.9 nM
